Results on four compounds are retold here after patent US12029715B2, “Precursor compounds for providing retinoids of the vitamin A5 pathway and uses thereof” (UNIVERSITY OF DEBRECEN, priority 2015, dated 2024).

The structures appear in SMILES notation. “Also recorded” adds a separate entry of the source.

Series [1] is described as follows: Mouse oral supplementation, retinoid levels in serum, brain and liver (LC-MS). The class given is in vivo. The following applies: mice, per os 40 mg/kg, 11 h after treatment.
Description: For metabolic analyses ATROL, 9CDHROL, 9CDHBC and control solutions were prepared as described above. Single per os application of the dose of 40 mg/kg of each substance was used to treat mice in the evening and samples were collected 11 h later in the light protected conditions, weighted, frozen in liquid nitrogen and stored at −80° C. until analyses. Serum was prepared and immediately stored in brown vials at −80° C., till further analysis.
Accordingly, for sample preparation 100 mg of the material (if samples were under 100 mg, water was added up to the used standard weight: 100 mg) or 100 μl serum was diluted with a threefold volume of isopropanol, the tissues were minced by scissors, vortexed for 10 seconds, put in a ultrasonic bath for 5 minutes, shaken for 6 minutes and centrifuged at 13000 rpm in a Heraeus BIOFUGE Fresco at +4° C. […] The dried extracts were resuspended with 30 μl of methanol—MTBE (50-50) and transferred into the autosampler and 10 μl subsequently analysed.
Mouse brain samples were prepared according to the procedure described above. Briefly, after single per os application of the dose of 40 mg/kg of 9CDHROL (or other cited substances) in the evening mice were sacrificed after 11 hours and tissues samples including brain were dissected under light-protection conditions, weighted, frozen in liquid nitrogen and stored at −80° C. until analyses. Serum was prepared and immediately stored in brown vials at −80° C., till further analysis.
For mouse supplementation experiments we treated n=6 mice per os with 40 mg/kg bw 9CDHROL and 11 h after the treatment the mice were killed and blood, brain and liver was taken. After centrifugation of the drawn blood, serum was obtained.
A further series has as its system Rbp1−/− and Rxrγ−/− mice. Briefly: Y-maze spontaneous alternation. The class given is in vivo, mouse. The following applies: 5-6 hours prior to testing. How it is done:
The Y-maze apparatus and the procedure were as previously described (Wietrzych et al., 2005). Briefly, each mouse was placed at the end of one arm and allowed to explore freely the apparatus for 5 min, with the experimenter out of the animal's sight. Spontaneous alternation performance (SAP) was assessed visually by scoring the pattern of entries into each arm and expressed as a percentage of total number of entries, discounting the first two visits. Total entries were scored as an index of ambulatory activity in the Y-maze, but none of tested mice had to be excluded due to low locomotor performance (score below 9 entries).
Vehicle treatments consisted of 3% ethanol and 3% DMSO solution in sunflower oil. Treatments were administered by intraperitoneal injections at volume/weight ratio 3 ml/kg between 8-10 am and 5-6 h before the test as previously validated (Wietrzych-Schindler M, 2011).

The next series has as its target T1, hRXRα LBD (Homo sapiens, UniProt P19793).
T1 sequence (P19793 223-462): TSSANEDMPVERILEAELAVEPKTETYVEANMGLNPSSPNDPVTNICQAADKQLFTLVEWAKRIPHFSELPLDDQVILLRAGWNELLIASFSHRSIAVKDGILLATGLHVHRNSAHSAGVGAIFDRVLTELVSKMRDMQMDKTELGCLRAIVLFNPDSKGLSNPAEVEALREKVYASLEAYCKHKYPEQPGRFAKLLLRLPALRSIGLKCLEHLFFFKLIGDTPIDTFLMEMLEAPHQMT
Briefly: ESI-MS in non-denaturing conditions, binding to RXR LBD. Also noted: cDNAs encoding hRXRα LBD (223-462); His-tag (N); made in house. The settings on record: titration monitored by ESI-MS. How it is done:
(§1) cDNAs encoding hRXRα LBD (223-462), hRARα LBD (153-421), hRARBβ LBD (169-414) and hRARγ LBD (178-423) were cloned into pET28b vector to generate N-terminal Histag fusion proteins. Purification was carried out as previously described [Lippert W P et al. 2009, Osz J, et al. 2012], including a metal affinity chromatography and a gel filtration. For details of sample preparation and ESI-MS analyses see below.
cDNAs encoding hRXRαLBD (223-462), hRARαLBD (153-421), hRARβLBD (169-414) and hRARγ LBD (178-423) were cloned into pET28b vector to generate N-terminal His-tag fusion proteins. Purification was carried out as previously described [Lippert W P et al. 2009, Osz J, et al. 2012], including a metal affinity chromatography and a gel filtration. Prior to ESI-MS analysis, samples were desalted on Zeba Spin desalting columns (Pierce) in 150 mM ammonium acetate (pH 8.0). ESI-MS measurements were performed on an electrospray time-of-flight mass spectrometer (MicrOTOF, Bruker Daltonics). Purity and homogeneity of the proteins were verified by mass spectrometry in denaturing conditions (samples were diluted at 2 pmol/μl in a 1:1 water-acetonitrile mixture (v/v) acidified with 1% formic acid). The mass measurements of the noncovalent complexes were performed in ammonium acetate (200 mM; pH 8.0). Samples were diluted to 8 pmol/ml in the previous buffer and continuously infused into the ESI ion source at a flow rate of […] through a Harvard syringe pump (Harvard Apparatus model 11). A careful optimization of the interface parameters was performed to obtain the best sensitivity and spectrum quality without affecting the noncovalent complexes stability. In particular, the capillary exit (CE) ranged from 60 to 150 V with a vacuum interface pressure of 2.3 mbar and was set to 80 V. For ligand-interaction analysis, ligands were added to the proteins in a 5-fold molar excess.

The subject of series [2] is differentiating monocyte-derived human dendritic cells. Briefly: DNA microarray in differentiating monocyte-derived dendritic cells. The class given is cell-based. The method, then: The generation and transcriptional analysis of differentiating DCs were performed as described previously [Szeles L et al. 2010]. Microarray data were deposited into the Gene Expression Omnibus database under accession no. GSE48573.
The generation and analysis of differentiating DCs were performed as described previously [Szeles L et al. 2010] with minor modifications. Briefly, human monocytes were isolated from healthy volunteer's buffy coat, obtained with a Regional Ethical Board permit from the Regional Blood Bank and isolated by Ficoll gradient centrifugation followed by immunomagnetic cell separation, and were cultured in the presence of GM-CSF and IL-4. Differentiating DCs were stimulated 18 h after […] by various agonists for 12 h. The ligands were used in the following concentrations: 10 μM (R)-9CDHRA, 10 μM (S)-9CDHRA, 1 μM 9cisRA, 100 nM LG100268, 1 μM GW3965, 1 μM Rosiglitazone (RSG), 1 μM GW1516, 100 nM AM580. Experiments were performed in biological triplicates. Samples were processed and hybridized to Human Genome U133 Plus 2.0 Arrays. Data were analysed using to GeneSpring 12.6.1 software. In detail, normalization was performed using RMA summarization algorithm. […] Microarray data were deposited into the Gene Expression Omnibus database under accession no. GSE48573.

In a further series the test system is hRARα, β and γ LBDs. The experiment in a line: ESI-MS in non-denaturing conditions, binding to RAR LBD isotypes. The arrangement: species or system human. The following applies: 5-fold molar excess of ligand. How it is done: as §1
cDNAs encoding hRXRαLBD (223-462), hRARαLBD (153-421), hRARβLBD (169-414) and hRARγ LBD (178-423) were cloned into pET28b vector to generate N-terminal His-tag fusion proteins. Purification was carried out as previously described [Lippert W P et al. 2009, Osz J, et al. 2012], including a metal affinity chromatography and a gel filtration. Prior to ESI-MS analysis, samples were desalted on Zeba Spin desalting columns (Pierce) in 150 mM ammonium acetate (pH 8.0). ESI-MS measurements were performed on an electrospray time-of-flight mass spectrometer (MicrOTOF, Bruker Daltonics). Purity and homogeneity of the proteins were verified by mass spectrometry in denaturing conditions (samples were diluted at 2 pmol/μl in a 1:1 water-acetonitrile mixture (v/v) acidified with 1% formic acid). The mass measurements of the noncovalent complexes were performed in ammonium acetate (200 mM; pH 8.0). […]

`CC1=C(/C=C/C(C)=C\C=C\C(C)CCO)C(C)(C)CCC1` (stereo not drawn) [9CDHROL, 9-cis-13,14-dihydroretinol]: in series [1], the “9CDHRA levels in serum, brain and liver after treatment (conversion to 9CDHRA)” value was “strong increase; also recorded: strongly increased; also recorded: best conversion”; the “9CDHROL levels in serum, brain and liver after treatment” value is “strongly increased; also recorded: strong and significantly increased levels”.
On to `CC1(C)CCC(C)(C)c2cc(C3(c4ccc(C(=O)O)cc4)OCCO3)ccc21` [UVI2108, reference compound], for which the “working memory in spontaneous alternation in the Y-maze” value is recorded as “normalised; also recorded: pro-mnemonic effects” in the series on Rbp1−/− and Rxrγ−/− mice (Rbp1−/− mice, ATRA 5 mg/kg, UVI2108 1 mg/kg, MA 5 mg/kg, DHA 1 mg/kg, TTNPB 5 mg/kg); “not” in the series with Rbp1−/− and Rxrγ−/− mice (Rxrγ−/− mice, same doses).
On to `CC1=C(/C=C/C(C)=C\C=C\[C@H](C)CC(=O)O)C(C)(C)CCC1` [(R)-9CDHRA, (9Z,13R)-13,14-Dihydroretinoic Acid], for which, at hRXRα LBD, the “higher affinity than (S)-9CDHRA for RXR LBD (peak amplitude)” value is on record as “about 65%” and the “lower affinity than 9CRA for RXR LBD (peak amplitude)” value is listed as “approximately 30%”. Moreover, in series [2], the “overlap in transcriptional changes with 9CRA” value is listed as “about 80%” and the “share of all transcripts regulated by 9CRA that are similarly regulated by (R)-9CDHRA” value stood at 85%. Besides, the “transcripts similarly regulated by both (R)-9CDHRA and 9CRA” value in series [2] (10 μM (R)-9CDHRA, 1 μM 9CRA) came out at 384. Also, the “number of transcripts regulated” value in series [2] (10 μM (R)-9CDHRA, 1 μM 9CRA, 12 h, FC>2) stood at 518. Besides, the “expression of genes that are direct targets of RXR permissive heterodimers (LXR-RXR, PPAR-RXR) and RAR-RXR” value in series [2] (9CDHRA 10 μM, 9CRA 1 μM, LG268 100 nM, GW3965 1 μM, RSG 1 μM, GW1516 1 μM, AM580 100 nM) is given as “induced the expression of genes; also recorded: induce the expression of many genes”. Besides, the “binding to RAR LBD isotypes in ESI-MS” value in the series on hRARα, β and γ LBDs was “bind to all RAR LBD isotypes”.
Turning to `CC(C=CC1=C(C)CCCC1(C)C)=CC=CC(C)CC(=O)O` (stereo not drawn) [9CDHRA, 9-cis-13,14-dihydroretinoic acid], the “expression of genes induced by AM580 (RAR-RXR target genes)” value in series [2] is listed as “also induced”. Besides, the “transcripts regulated by LG268 (RXR-specific agonist) also regulated” value in series [2] (72 LG268 transcriptional targets) is listed as 68 out of 72.
